Experimental data from patent US20110144159A1, “ETHER BENZYLIDENE PIPERIDINE ARYL CARBOXAMIDE COMPOUNDS USEFUL AS FAAH INHIBITORS” (Pfizer Inc, priority 2008, published 2011).

Molecular target: T1, Human FAAH (Homo sapiens, UniProt O00519)
T1 construct: made in house
T1 sequence (O00519 32-579 limits assumed): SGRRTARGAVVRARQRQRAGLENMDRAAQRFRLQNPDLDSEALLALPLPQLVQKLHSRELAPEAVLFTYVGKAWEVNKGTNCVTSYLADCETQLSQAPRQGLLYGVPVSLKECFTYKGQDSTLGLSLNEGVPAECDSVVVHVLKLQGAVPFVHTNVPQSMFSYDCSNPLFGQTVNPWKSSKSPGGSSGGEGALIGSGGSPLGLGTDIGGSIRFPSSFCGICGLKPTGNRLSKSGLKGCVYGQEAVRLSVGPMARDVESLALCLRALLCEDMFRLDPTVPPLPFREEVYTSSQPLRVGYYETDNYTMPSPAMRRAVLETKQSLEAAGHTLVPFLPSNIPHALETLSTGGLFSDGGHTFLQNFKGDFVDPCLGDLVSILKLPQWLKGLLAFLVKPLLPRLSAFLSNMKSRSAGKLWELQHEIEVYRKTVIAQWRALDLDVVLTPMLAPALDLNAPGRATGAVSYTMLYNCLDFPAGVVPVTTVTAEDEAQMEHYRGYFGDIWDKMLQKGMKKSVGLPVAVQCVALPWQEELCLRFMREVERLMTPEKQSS
Experiment: FAAH assay (glutamate dehydrogenase-coupled, oleamide substrate, absorbance at 340 nm)
Format: biochemical
Settings: irreversible inhibition potency
Method: A FAAH assay may be carried out in 384-well clear polystyrene plates in a total volume of 50 μl per well. All percents are by volume. To each well was placed the reaction mixture (40 μl) containing 1-4 nM FAAH, 50 mM NaPi, pH 7.4, 3 mM α-ketoglutarate, 0.15 mM NADH, 7.5 U/ml glutamate dehydrogenase, 2 mM ADP, 1 mM EDTA, and 0.1% Triton X-100 (The concentration shown for each component was the final concentration in the assay). To this mixture was added 5 μl of a compound of Examples 1 to 20 at various concentrations prepared in 50% DMSO (or 5 μl 50% DMSO for controls). This was immediately followed by the addition of 5 μl oleamide (500 μM) dissolved in 75% EtOH/25% DMSO and the reaction mixture was mixed for 1.5 min. The final concentrations of DMSO and EtOH in the assay are each 7.5%. The reactions was then incubated at 30° C. and the absorbance at 340 nm was collected over a period of 90 min with readings taken in 30-second intervals using SpectraMax Plus^384 Microplate Spectrophotometer (Molecular Devices, Sunnyvale, Calif.). Human FAAH used in the assay was prepared as described in the patent application WO 2006/067613. The purity of the enzyme used was greater than 98% based on an analysis by SDS-polyacrylamide gel electrophoresis followed by Coomassie Blue staining.
Initial velocity data (V) is obtained from the slopes of the initial progressive curves. They are plotted as a function of substrate concentration and fit to the Michaelis-Menten equation (1) using Prism (GraphPad Software, Inc., San Diego, Calif.) software to obtain Km and Vmax values.
To obtain potencies of irreversible inhibitors, progressive curves consistent with first order inhibition kinetics (two-step irreversible inhibition mechanism) are fit to equation (2) by nonlinear least squares regressions to determine kobs values at each inhibitor concentration, where [P]t is the absorbance at time t, V0 is a constant related to the steady state rate of the uninhibited reaction, and kobs is the first order rate constant for enzyme inactivation. The inhibitor dissociation constant (Ki) and the first order rate
constant of enzyme inactivation at infinite inhibitor concentration (kinact) are then obtained by fitting the kobs vs. [I] curves to equation (3).

Row | Compound | hFAAH KInact/K
1 | CCC(CC)Oc1cccc(C=C2CCN(C(=O)Nc3cccnn3)CC2)c1 [Example 28, 4-[3-(1-ethylpropoxy)benzylidene]-N-pyridazin-3-ylpiperidine-1-carboxamide] | 303 M⁻¹ s⁻¹
2 | O=C(Nc1cccnc1)N1CCC(=Cc2cccc(OC3CC3)c2)CC1 [Example 29, 4-[3-(cyclopropyloxy)benzylidene]-N-pyridin-3-ylpiperidine-1-carboxamide] | 1300 M⁻¹ s⁻¹
3 | CCCC(C)Oc1cccc(C=C2CCN(C(=O)Nc3cccnn3)CC2)c1 (stereo not shown) [Example 30, 4-[3-(1-methylbutoxy)benzylidene]-N-pyridazin-3-ylpiperdine-1-carboxamide] | 3440 M⁻¹ s⁻¹
4 | CCCC(C)Oc1cccc(C=C2CCN(C(=O)Nc3cccnn3)CC2)c1 (stereo not shown) [Example 31, 4-[3-(1-methylbutoxy)benzylidene]-N-pyridazin-3-ylpiperidine-1-carboxamide] | 7450 M⁻¹ s⁻¹
5 | CC1CCCC(Oc2cccc(C=C3CCN(C(=O)Nc4cccnc4)CC3)c2)C1 (stereo not shown) [Example 32, 4-{3-[(3-methylcyclohexyl)oxy]benzylidene}-N-pyridin-3-ylpiperidine-1-carboxamide] | 712 M⁻¹ s⁻¹
6 | O=C(Nc1cccnn1)N1CCC(=Cc2cccc(OC3CC3)c2)CC1 [Example 33, 4-[3-(cyclopropyloxy)benzylidene]-N-pyridazin-3-ylpiperidine-1-carboxamide] | 1730 M⁻¹ s⁻¹
7 | CCCC(C)Oc1cccc(C=C2CCN(C(=O)Nc3cccnc3)CC2)c1 (stereo not shown) [Example 34, 4-[3-(1-methylbutoxy)benzylidene]-N-pyridin-3-ylpiperidine-1-carboxamide] | 1810 M⁻¹ s⁻¹
8 | CCCC(C)Oc1cccc(C=C2CCN(C(=O)Nc3cccnc3)CC2)c1 (stereo not shown) [Example 35, 4-[3-(1-methylbutoxy)benzylidene]-N-pyridin-3-ylpiperidine-1-carboxamide] | 2680 M⁻¹ s⁻¹
9 | CC1CCC(Oc2cccc(C=C3CCN(C(=O)Nc4cccnc4)CC3)c2)CC1 (stereo not shown) [Example 36, 4-{3-[(4-methylcyclohexyl)oxy]benzylidene}-N-pyridin-3-ylpiperidine-1-carboxamide] | 992 M⁻¹ s⁻¹
10 | CC(C)Oc1cccc(C=C2CCN(C(=O)Nc3cccnc3)CC2)c1 [Example 37, 4-(3-isopropoxybenzylidene)-N-pyridin-3-ylpiperidine-1-carboxamide] | 1380 M⁻¹ s⁻¹
11 | CC1CCCC(Oc2cccc(C=C3CCN(C(=O)Nc4cccnn4)CC3)c2)C1 (stereo not shown) [Example 38, 4-{3-[(3-methylcyclohexyl)oxy]benzylidene}-N-pyridazin-3-ylpiperidine-1-carboxamide] | 1090 M⁻¹ s⁻¹
12 | CC1CCC(Oc2cccc(C=C3CCN(C(=O)Nc4cccnn4)CC3)c2)CC1 (stereo not shown) [Example 39, 4-{3-[(4-methylcyclohexyl)oxy]benzylidene}-N-pyridazin-3-ylpiperidine-1-carboxamide] | 2090 M⁻¹ s⁻¹
13 | CC(C)Oc1cccc(C=C2CCN(C(=O)Nc3cccnn3)CC2)c1 [Example 40, 4-(3-isopropoxybenzylidene)-N-pyridazin-3-ylpiperidine-1-carboxamide] | 2350 M⁻¹ s⁻¹
14 | CCCC(CC)Oc1cccc(C=C2CCN(C(=O)Nc3cccnn3)CC2)c1 (stereo not shown) [Example 41, 4-[3-(1-ethylbutoxy)benzylidene]-N-pyridazin-3-ylpiperidine-1-carboxamide] | 1800 M⁻¹ s⁻¹
15 | CCCC(CC)Oc1cccc(C=C2CCN(C(=O)Nc3cccnc3)CC2)c1 (stereo not shown) [Example 42, 4-[3-(1-ethylbutoxy)benzylidene]-N-pyridin-3-ylpiperidine-1-carboxamide] | 551 M⁻¹ s⁻¹
16 | O=C(Nc1cccnc1)N1CCC(=Cc2cccc(OC3CCOCC3)c2)CC1 [Example 43, N-pyridin-3-yl-4-[3-(tetrahydro-2H-pyran-4-yloxy)benzylidene]piperidine-1-carboxamide] | 738 M⁻¹ s⁻¹
